Experimental data as given in publication PMC12149313 (Cell Death & Disease, 2025).

Tested on: T1, β-tubulin
T1 construct: gene TUBB
Test: ITDR-CETSA of β-tubulin at […] °C in CFPAC-1 COMT-/- cells
Type: cell-based

EC50: 3000 ± 2000 nM
Compound: CNc1nc2ccccc2n2c(-c3ccc(OC)c(O)c3)cnc12 [EAPB04303]
